For 33 compounds, IC50 results are on record in patent publication US11447503B2, “Pyridine carbamates and their use as GLUN2B receptor modulators” (JANSSEN PHARMACEUTICA NV, priority 2019, dated 2022).

Structures are written as SMILES. Counter-ions that a name gives are not always drawn.

As a reminder, the IC50 is the concentration at which inhibition is half-maximal.

Chain of human GluN1/GluN2B NMDA receptors (Q13224 27-1484, other chains not shown): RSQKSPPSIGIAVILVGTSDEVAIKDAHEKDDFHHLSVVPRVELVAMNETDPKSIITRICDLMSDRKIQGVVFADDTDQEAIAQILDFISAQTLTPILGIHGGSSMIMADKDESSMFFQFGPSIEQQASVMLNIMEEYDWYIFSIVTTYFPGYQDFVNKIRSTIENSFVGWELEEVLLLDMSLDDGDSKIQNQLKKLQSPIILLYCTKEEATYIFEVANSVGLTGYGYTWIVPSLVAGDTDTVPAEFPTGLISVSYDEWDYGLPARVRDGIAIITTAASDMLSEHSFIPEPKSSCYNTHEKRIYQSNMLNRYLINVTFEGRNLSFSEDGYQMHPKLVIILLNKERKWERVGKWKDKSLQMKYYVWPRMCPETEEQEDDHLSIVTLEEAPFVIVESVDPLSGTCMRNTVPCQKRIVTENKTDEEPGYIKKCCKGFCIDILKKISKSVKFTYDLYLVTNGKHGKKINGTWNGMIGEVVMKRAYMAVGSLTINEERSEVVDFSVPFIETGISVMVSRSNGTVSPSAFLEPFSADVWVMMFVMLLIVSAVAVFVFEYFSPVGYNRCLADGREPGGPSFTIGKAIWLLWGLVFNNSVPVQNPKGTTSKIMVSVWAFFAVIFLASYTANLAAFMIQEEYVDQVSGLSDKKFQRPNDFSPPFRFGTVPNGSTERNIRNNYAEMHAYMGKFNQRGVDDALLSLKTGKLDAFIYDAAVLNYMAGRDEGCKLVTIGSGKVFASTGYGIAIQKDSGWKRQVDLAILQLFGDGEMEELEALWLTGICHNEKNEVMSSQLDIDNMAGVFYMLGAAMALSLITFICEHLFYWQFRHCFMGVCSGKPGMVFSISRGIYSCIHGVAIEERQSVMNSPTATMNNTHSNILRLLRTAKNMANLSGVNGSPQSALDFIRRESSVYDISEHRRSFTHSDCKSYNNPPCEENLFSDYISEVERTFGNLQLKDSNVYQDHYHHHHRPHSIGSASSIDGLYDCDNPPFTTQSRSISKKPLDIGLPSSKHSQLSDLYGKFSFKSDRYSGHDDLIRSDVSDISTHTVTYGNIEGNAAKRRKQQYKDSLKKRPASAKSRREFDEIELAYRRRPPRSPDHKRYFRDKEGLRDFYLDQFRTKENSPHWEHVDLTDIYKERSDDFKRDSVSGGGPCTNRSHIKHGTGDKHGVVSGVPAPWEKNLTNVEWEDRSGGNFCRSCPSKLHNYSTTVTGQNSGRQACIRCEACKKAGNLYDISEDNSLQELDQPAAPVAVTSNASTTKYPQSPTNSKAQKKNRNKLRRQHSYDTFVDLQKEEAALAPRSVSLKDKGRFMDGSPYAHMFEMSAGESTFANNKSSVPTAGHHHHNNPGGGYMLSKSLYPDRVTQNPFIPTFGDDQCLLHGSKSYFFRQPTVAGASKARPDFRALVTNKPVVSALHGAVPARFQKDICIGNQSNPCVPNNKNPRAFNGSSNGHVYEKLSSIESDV

This experiment deals with human GluN1/GluN2B NMDA receptors (Homo sapiens, UniProt Q05586+Q13224). Briefly: Cell-based calcium flux (FLIPR) assay on cloned human GluN1/GluN2B ion channels expressed in mammalian cells. The settings on record: standard assay; glutamate ~EC40, 10 μM glycine; stable Tet-On cell line. The protocol:
5.3. Biological Assays: Effect of Compounds of Formula (I) on Cloned Human GluN1/GluN2B Ion Channels Expressed in Mammalian Cells
NMDA receptors are ion channels that are highly permeable to Ca^2+ ions, rendering it possible to monitor NMDA receptor function using cell-based calcium flux assay. In this assay, co-agonists glutamate and glycine are added to cells heterologously expressing human GluN1/GluN2B NMDA receptors to initiate cellular Ca^2+ influx. The time course of the changes in intracellular calcium is measured using a fluorescent dye and a FLIPR (Fluorometric Imaging Plate Reader) device.
Twenty four hours before measurements, the expression of the NMDA receptors in the stable cell line is induced with Tet-On inducible system in the presence of a non-selective NMDA receptor blocker. On the day of the experiment, cell culture media is carefully washed and the cells are loaded with Calcium 5 Dye Kit (Molecular Devices) in dye loading buffer containing 137 mM NaCl, 4 mM KCl, 2 mM CaCl2, 0.5 mM MgCl2 (standard assay) or 1.5 mM MgCl2 (HTS assay), 10 mM HEPES and 5 mM D-glucose; pH 7.4. After 1 h incubation at the room temperature, the dye is washed away with the assay buffer (137 mM NaCl (standard assay) or 150 mM (HTS assay), 4 mM KCl (standard assay) or 3 mM (HTS assay), 2 mM CaCl2, 0.01 mM EDTA, 10 mM HEPES and 5 mM D-glucose; pH 7.4) In the FLIPR TETRA reader, various concentrations of the test compounds are added to the cells for 5 min while fluorescence is monitored to detect potential agonist activity. Next, co-agonists, glutamate and glycine are added for another 5 minutes. The concentration of glutamate corresponding to ˜EC40 (standard assay) or EC40 (HTS assay) is used to maximize the assay's signal window and ability to detect NMDA receptor antagonists and negative allosteric modulators. A saturating concentration (10 μM) of glycine is also present in the assay. A non-selective NMDA receptor antagonist, (+)MK-801 is used as a positive control for antagonist activity. The fluorescent signal in the presence of test compounds is quantified and normalized to the signal defined by the appropriate control wells.
(In general: Calcium assays in cells follow changes in intracellular calcium, usually with a dye or a luminescent sensor.)
On to `CC1(C)CCN(Cc2cncc(-c3ccc(F)c(OC(F)F)c3)c2)C(=O)O1` [Example 10, 3-[[5-[3-(Difluoromethoxy)-4-fluoro-phenyl]-3-pyridyl]methyl]-6,6-dimethyl-1,3-oxazinan-2-one], for which the IC50 worked out at 521 nM. As for `CC(C)[C@@H]1COC(=O)N1Cc1cncc(-c2ccc(F)c(OC(F)F)c2)c1` [Example 11, (4R)-3-[[5-[3-(Difluoromethoxy)-4-fluoro-phenyl]-3-pyridyl]methyl]-4-isopropyl-oxazolidin-2-one], the concentration for half-maximal inhibition (IC50) is more than 3000 nM. As for `O=C1OC2(CCC2)CN1Cc1cncc(-c2ccc(F)c(OC(F)F)c2)c1` [Example 12, 6-[[5-[3-(Difluoromethoxy)-4-fluoro-phenyl]-3-pyridyl]methyl]-8-oxa-6-azaspiro[3.4]octan-7-one], the half-inhibitory concentration (IC50) was found to be 59 nM. With `O=C1OC2(COC2)CN1Cc1cncc(-c2ccc(F)c(OC(F)F)c2)c1` [Example 13, 6-[[5-[3-(Difluoromethoxy)-4-fluoro-phenyl]-3-pyridyl]methyl]-2,8-dioxa-6-azaspiro[3.4]octan-7-one] the figure was 39 nM. With `O=C1OC2(CCOCC2)CN1Cc1cncc(-c2ccc(F)c(OC(F)F)c2)c1` [Example 20, 2-[[5-[3-(Difluoromethoxy)-4-fluoro-phenyl]-3-pyridyl]methyl]-4,8-dioxa-2-azaspiro[4.5]decan-3-one] the figure was 267 nM; with `O=C1OC2(CNC2)CN1Cc1cncc(-c2ccc(F)c(C(F)F)c2)c1` [Example 21, 6-[[5-[3-(Difluoromethyl)-4-fluoro-phenyl]-3-pyridyl]methyl]-8-oxa-2,6-diazaspiro[3.4]octan-7-one Trifluoroacetate Salt], 806 nM; with `CC(C)[C@H]1COC(=O)N1Cc1cncc(-c2ccc(F)c(C(F)F)c2)c1` [Example 23, (4S)-3-[[5-[3-(Difluoromethyl)-4-fluoro-phenyl]-3-pyridyl]methyl]-4-isopropyl-oxazolidin-2-one], 2600 nM. As for `O=C1OCc2ccccc2N1Cc1cncc(-c2ccc(F)c(C(F)F)c2)c1` [Example 24, 1-[[5-[3-(Difluoromethyl)-4-fluoro-phenyl]-3-pyridyl]methyl]-4H-3,1-benzoxazin-2-one], the half-inhibitory concentration (IC50) was found to be 73 nM. In the case of `O=C1OC2(CC2)CN1Cc1cncc(-c2ccc(F)c(C(F)F)c2)c1` [Example 29, 5-[[5-[3-(Difluoromethyl)-4-fluoro-phenyl]-3-pyridyl]methyl]-7-oxa-5-azaspiro[2.4]heptan-6-one] it was 12 nM; in that of `CC1(C)CCN(Cc2cncc(-c3ccc(F)c(C(F)F)c3)c2)C(=O)O1` [Example 30, 3-[[5-[3-(Difluoromethyl)-4-fluoro-phenyl]-3-pyridyl]methyl]-6,6-dimethyl-1,3-oxazinan-2-one], 603 nM.

Turning to `CC(C)[C@@H]1COC(=O)N1Cc1cncc(-c2ccc(F)c(C(F)F)c2)c1` [Example 31, (4R)-3-[[5-[3-(Difluoromethyl)-4-fluoro-phenyl]-3-pyridyl]methyl]-4-isopropyl-oxazolidin-2-one], the IC50 was more than 3000 nM. For the compound `O=C1OC2(CCC2)CN1Cc1cncc(-c2ccc(F)c(C(F)F)c2)c1` [Example 32, 6-[[5-[3-(Difluoromethyl)-4-fluoro-phenyl]-3-pyridyl]methyl]-8-oxa-6-azaspiro[3.4]octan-7-one], the half-maximal inhibitory concentration (IC50) was found to be 26 nM. In the case of `C[C@@H]1CN(Cc2cncc(-c3ccc(F)c(C(F)F)c3)c2)C(=O)O1` [Example 33, (5R)-3-[[5-[3-(Difluoromethyl)-4-fluoro-phenyl]-3-pyridyl]methyl]-5-methyl-oxazolidin-2-one] it was 16 nM; in that of `O=C1OC2(COC2)CN1Cc1cncc(-c2ccc(F)c(C(F)F)c2)c1` [Example 34, 6-[[5-[3-(Difluoromethyl)-4-fluoro-phenyl]-3-pyridyl]methyl]-2,8-dioxa-6-azaspiro[3.4]octan-7-one], 30 nM. With `O=C1OC2(CCOCC2)CN1Cc1cncc(-c2ccc(F)c(C(F)F)c2)c1` [Example 42, 2-[[5-[3-(Difluoromethyl)-4-fluoro-phenyl]-3-pyridyl]methyl]-4,8-dioxa-2-azaspiro[4.5]decan-3-one] the figure was 108 nM; with `O=C1OC2(CNC2)CN1Cc1cncc(-c2ccc(F)c(OC(F)F)c2)c1` [Example 43, 6-[[5-[3-(Difluoromethoxy)-4-fluoro-phenyl]-3-pyridyl]methyl]-8-oxa-2,6-diazaspiro[3.4]octan-7-one Trifluoroacetate Salt], 2620 nM. With `Cc1cc(-c2cncc(CN3CCOC3=O)c2)ccc1F` [Example 44, 3-[[5-(4-Fluoro-3-methyl-phenyl)-3-pyridyl]methyl]oxazolidin-2-one] the figure was 12 nM; with `Cc1c(F)ccc(-c2cncc(CN3CCOC3=O)c2)c1F` [Example 45, 3-[[5-(2,4-Difluoro-3-methyl-phenyl)-3-pyridyl]methyl]oxazolidin-2-one], 9 nM; with `O=C1OCCN1Cc1cncc(-c2cccc(C(F)(F)F)c2)c1` [Example 46, 3-[[5-[3-(Trifluoromethyl)phenyl]-3-pyridyl]methyl]oxazolidin-2-one], 26 nM. In the case of `O=C1OCCN1Cc1cncc(-c2ccc(Cl)c(OC(F)F)c2)c1` [Example 47, 3-[[5-[4-Chloro-3-(difluoromethoxy)phenyl]-3-pyridyl]methyl]oxazolidin-2-one], the IC50 was 11 nM.

On to `O=C1OCCN1Cc1cncc(-c2ccc(OC(F)(F)F)c(F)c2)c1` [Example 48, 3-[[5-[3-Fluoro-4-(trifluoromethoxy)phenyl]-3-pyridyl]methyl]oxazolidin-2-one], for which the IC50 stood at 912 nM. Turning to `CC(F)(F)c1cc(-c2cncc(CN3CCOC3=O)c2)ccc1F` [Example 49, 3-[[5-[3-(1,1-Difluoroethyl)-4-fluoro-phenyl]-3-pyridyl]methyl]oxazolidin-2-one], the IC50 came to 30 nM. For the compound `O=C1OCCN1Cc1cncc(-c2cccc(C(F)(F)F)n2)c1` [Example 50, 3-[[5-[6-(Trifluoromethyl)-2-pyridyl]-3-pyridyl]methyl]oxazolidin-2-one], the IC50 stood at 786 nM.

As for `O=C1OCCN1Cc1cncc(-c2ccnc(C(F)(F)F)c2)c1` [Example 51, 3-[[5-[2-(Trifluoromethyl)-4-pyridyl]-3-pyridyl]methyl]oxazoidin-2-one], the half-inhibitory concentration (IC50) worked out at 1000 nM.

Turning to `O=C1OCCCN1Cc1cncc(-c2ccc(F)c(C(F)(F)F)c2)c1` [Example 52, 3-[[5-[4-Fluoro-3-(trifluoromethyl)phenyl]-3-pyridyl]methyl]-1,3-oxazinan-2-one], the IC50 came out at 27 nM.

For the compound `[2H]C([2H])(c1cncc(-c2ccc(F)c(OC(F)F)c2)c1)N1CCCOC1=O` [Example 55, 3-[Dideuterio-[5-[3-(difluoromethoxy)-4-fluoro-phenyl]-3-pyridyl]methyl]-1,3-oxazinan-2-one], the IC50 was 12 nM. In the case of `[2H]C([2H])(c1cc(-c2ccc(F)c(OC(F)F)c2)cnc1C)N1CCCOC1=O` [Example 56, 3-[Dideuterio-[5-[3-(difluoromethoxy)-4-fluoro-phenyl]-2-methyl-3-pyridyl]methyl]-1,3-oxazinan-2-one] it was 9 nM.

Regarding `[2H]C([2H])(c1cc(-c2ccc(F)c(C)c2)cnc1C)N1CCCOC1=O` [Example 57, 3-[Dideuterio-[5-(4-fluoro-3-methyl-phenyl)-2-methyl-3-pyridyl]methyl]-1,3-oxazinan-2-one], the concentration for half-maximal inhibition (IC50) is 23 nM. Turning to `[2H]C([2H])(c1cc(-c2ccc(F)c(C(F)F)c2)cnc1C)N1CCCOC1=O` [Example 58, 3-[Dideuterio-[5-[3-(difluoromethyl)-4-fluoro-phenyl]-2-methyl-3-pyridyl]methyl]-1,3-oxazinan-2-one], the IC50 came out at 25 nM. In the case of `[2H]C([2H])(c1cc(-c2ccc(F)c(C(F)F)c2)cnc1C)N1CCOC1=O` [Example 59, 3-[Dideuterio-[5-[3-(difluoromethyl)-4-fluoro-phenyl]-2-methyl-3-pyridyl]methyl]oxazolidin-2-one] it was 13 nM; in that of `Cc1ncc(-c2cccc(C(F)F)c2)cc1CN1CCCOC1=O` [Example 62, 3-[[5-[3-(Difluoromethyl)phenyl]-2-methyl-3-pyridyl]methyl]-1,3-oxazinan-2-one], 128 nM.

Regarding `Cc1ncc(-c2cccc(OC(F)F)c2)cc1CN1CCCOC1=O` [Example 63, 3-[[5-[3-(Difluoromethoxy)phenyl]-2-methyl-3-pyridyl]methyl]-1,3-oxazinan-2-one], the concentration for half-maximal inhibition (IC50) was determined as 174 nM.

Regarding `Cc1ncc(-c2cccc(Cl)c2)cc1CN1CCCOC1=O` [Example 64, 3-[[5-(3-Chlorophenyl)-2-methyl-3-pyridyl]methyl]-1,3-oxazinan-2-one], the 50% inhibitory concentration (IC50) turned out to be 406 nM.
